# Assay: Two-photon absorption cross-sectional area, Z scan method, Examples A (800 nm)
# Assay type: physicochemical
# Conditions: tetrahydrofuran solution, femtosecond titanium sapphire laser
# Procedure: Each of the above-given compounds Nos. 1, 2, 4, 5, 6, 7, 10, 11, 15, 16, 17, 20, 24, 25, 27 and 28 of the present invention was dissolved in tetrahydrofuran, and the resultant solution was measured for its two-photon absorption cross-sectional area according to the below-described evaluation method therefor.
# The following compound (29) was dissolved in tetrahydrofuran, and the resultant solution was measured for its two-photon absorption cross-sectional area according to the below-described evaluation method therefor.
# The following compound (30) was dissolved in tetrahydrofuran, and the resultant solution was measured for its two-photon absorption cross-sectional area according to the below-described evaluation method therefor.
# [drawing 66] [Method for Measuring Two-Photon Absorption Cross-Sectional Area]
# (§1) FIG. 8 schematically illustrates a system of the method.
# (§2) Measuring light source: femtosecond titanium sapphire laser
# (§3) Repetition frequency: 80 MHz
# (§4) Measuring method: Z scan method
# Wavelength of light source: 800 nm
# (§5) Inner diameter of cuvette: 10 mm
# (§6) Light power for measurement: about 500 mW
# (§7) Collection diameter: 40 μm to 50 μm
# (§8) A quartz cell filled with each sample solution was placed in a light path through which a focused laser beam was passed. Then, the cell was moved along the light path for Z-scan measurement.
# The sample solution was measured for its transmittance, and the thus-obtained value and the following theoretical equation (1) were used to determine a nonlinear absorption coefficient of the sample. T=[ln(1+I0L0β)]/I0L0β (1) where T denotes a transmittance (%), I0 denotes an excited light density [GW/cm^2], L0 denotes a sample cell length [cm], and β denotes a nonlinear absorption coefficient [cm/GW].
# The thus-determined nonlinear absorption coefficient and the following equation (2) were used to calculate a two-photon absorption cross-sectional area σ. Note that the unit of σ is GM (1 GM=1×10^−50 cm^4·s·photon^−1). σ=1,000×hvβ/[…] (2)
# (§9) where h denotes the Planck's constant [J·s], v denotes a frequency of an incident laser beam [s^−1], NA denotes the Avogadoro's number, and C denotes a concentration of a solution [mol/L].
row,Two-photon absorption cross-sectional area,SMILES
1,"1,480 GM",CC1=C(C)c2nc1c(-c1ccc(C#N)cc1)c1[nH]c(c(C)c1C)c(-c1ccc(/C=C/c3ccc(N(c4ccccc4)c4ccc(C)cc4)cc3)cc1)c1nc(c(-c3ccc(C#N)cc3)c3[nH]c(c(C)c3C)c2-c2ccc(/C=C/c3ccc(N(c4ccccc4)c4ccc(C)cc4)cc3)cc2)C(C)=C1C [compound 5]
2,730 GM,Cc1ccc(N(c2ccc(C)cc2)c2ccc(/C=C/c3ccc(C4=c5ccc6[n]5[Ni][n]5c(ccc5C(c5cccc(C7OCC(C)(C)CO7)c5)=C5C=CC4=N5)C(Cl)=C4C=CC(=N4)C=6c4cccc(C5OCC(C)(C)CO5)c4)cc3)cc2)cc1 [compound 6]
3,"1,020 GM",CCCCCCc1ccc(N(c2ccc(-c3c4nc(c(-c5c(C)cc(C)cc5C)c5[nH]c(cc6nc(c(-c7c(C)cc(C)cc7C)c7[nH]c3c(CC)c7C)C(C)=C6CC)c(CC)c5C)C(C)=C4CC)cc2)c2ccc(-c3c4nc(c(-c5c(C)cc(C)cc5C)c5[nH]c(cc6nc(c(-c7c(C)cc(C)cc7C)c7[nH]c3c(CC)c7C)C(C)=C6CC)c(CC)c5C)C(C)=C4CC)cc2)cc1 [compound 25]
4,870 GM,CCC1=C(CC)c2nc1c(Br)c1[nH]c(c(CC)c1CC)c(-c1ccc([N+](=O)[O-])cc1)c1nc(c(-c3ccc4c(c3)C(C)(C)c3cc(-c5c6nc(c(-c7ccc([N+](=O)[O-])cc7)c7[nH]c(c(Br)c8nc(c(-c9ccc([N+](=O)[O-])cc9)c9[nH]c5c(CC)c9CC)C(CC)=C8CC)c(CC)c7CC)C(CC)=C6CC)ccc3-4)c3[nH]c(c(CC)c3CC)c2-c2ccc([N+](=O)[O-])cc2)C(CC)=C1CC [compound 27]

# Assay: Two-photon absorption cross-sectional area, Z scan method, Examples B
# Assay type: physicochemical
# Conditions: tetrahydrofuran solution, femtosecond laser, 780 nm to 960 nm (710 nm to 990 nm)
# Procedure: Each of Compounds (1), (2), (57), (58), (59), (60), (3), (4), (61), (62), (25), (26), (63), (64), (65), (66), (45), (67), (68), (69), (70), (71), (72), (5), (9), (13), (19), (27), (31), (32), (34), (36), (39), (44), (53) and (55) was dissolved in tetrahydrofuran, and the resultant tetrahydrofuran solution was measured for its two-photon absorption cross-sectional area according to the below-described evaluation method therefor.
# This measurement was performed under the following conditions:
# Sample concentration: 10^−2 mol to 10^−5 mol (this range covering optimal concentrations of the samples (at which measurements are easily performed));
# Light path length of cell: 10 mm (corresponding to the inner diameter of cuvette);
# Light: variable femtosecond laser having a wavelength of 710 nm to 990 nm; and
# Light power: 10 mW to 800 mW.
# The following compound (73) was dissolved in tetrahydrofuran, and the resultant solution was measured for its two-photon absorption cross-sectional area according to the below-described evaluation method therefor.
# The following compound (74) was dissolved in tetrahydrofuran, and the resultant solution was measured for its two-photon absorption cross-sectional area according to the below-described evaluation method therefor.
# [drawing 68] [Method for Measuring Two-Photon Absorption Cross-Sectional Area]
# as §1, §2, §3, §4, §5, §6, §7, §8
# The sample solution was measured for its transmittance, and the thus-obtained value and the following theoretical equation (I) were used to determine a nonlinear absorption coefficient of the sample. T=[ln(1+I0L0β)]/I0L0β (I)
# where T denotes a transmittance (%), I0 denotes an excited light density [GW/cm^2], L0 denotes a sample cell length [cm], and β denotes a nonlinear absorption coefficient [cm/GW].
# The thus-determined nonlinear absorption coefficient and the following equation (ii) were used to calculate a two-photon absorption cross-sectional area σ. Note that the unit of σ is GM (1 GM=1×10^−50 cm^4·s·photon^−1). σ=1,000×hvβ/[…] (ii)
# as §9
row,Two-photon absorption cross-sectional area,SMILES
1,990 GM,CCCCCCC1(CCCCCC)c2cc(-c3c4nc(c(-c5cc(OC)c(OC)c(OC)c5)c5ccc(cc6nc(c(-c7cc(OC)c(OC)c(OC)c7)c7ccc3[nH]7)C=C6)[nH]5)C=C4)ccc2-c2ccc(-c3c4nc(c(-c5cc(OC)c(OC)c(OC)c5)c5ccc([nH]5)c(/C=C/c5ccc(N(c6ccccc6)c6ccccc6)cc5)c5nc(c(-c6cc(OC)c(OC)c(OC)c6)c6ccc3[nH]6)C=C5)C=C4)cc21 [(67)]
2,"1,020 GM",CCCCCCC1(CCCCCC)c2cc(C3=C4C=CC(=N4)C(c4cc(OC)c(OC)c(OC)c4)=c4ccc5[n]4[Ni][n]4c(ccc43)C(c3cc(OC)c(OC)c(OC)c3)=C3C=CC(=N3)C=5/C=C/c3ccc(N(c4ccccc4)c4ccccc4)cc3)ccc2-c2ccc(C3=c4ccc5[n]4[Ni][n]4c(ccc4C(c4cc(OC)c(OC)c(OC)c4)=C4C=CC3=N4)C=C3C=CC(=N3)C=5c3cc(OC)c(OC)c(OC)c3)cc21 [(68)]
3,920 GM,CCCCCCC1(CCCCCC)c2cc(C3=C4C=CC(=N4)C(c4cc(OC)c(OC)c(OC)c4)=c4ccc5[n]4[Cu][n]4c(ccc43)C(c3cc(OC)c(OC)c(OC)c3)=C3C=CC(=N3)C=5/C=C/c3ccc(N(c4ccccc4)c4ccccc4)cc3)ccc2-c2ccc(C3=c4ccc5[n]4[Cu][n]4c(ccc4C(c4cc(OC)c(OC)c(OC)c4)=C4C=CC3=N4)C=C3C=CC(=N3)C=5c3cc(OC)c(OC)c(OC)c3)cc21 [(69)]
4,900 GM,CCCCCCC1(CCCCCC)c2cc(C3=C4C=CC(=N4)C(c4cc(OC)c(OC)c(OC)c4)=c4ccc5[n]4[Co][n]4c(ccc43)C(c3cc(OC)c(OC)c(OC)c3)=C3C=CC(=N3)C=5/C=C/c3ccc(N(c4ccccc4)c4ccccc4)cc3)ccc2-c2ccc(C3=c4ccc5[n]4[Co][n]4c(ccc4C(c4cc(OC)c(OC)c(OC)c4)=C4C=CC3=N4)C=C3C=CC(=N3)C=5c3cc(OC)c(OC)c(OC)c3)cc21 [(70)]
5,≈0 GM,"CC(C)(C)c1c2nc(c(C(C)(C)C)c3ccc([nH]3)c(C(C)(C)C)c3nc(c(C(C)(C)C)c4ccc1[nH]4)C=C3)C=C2 [(73), reference compound]"

row,SMILES,Two-photon absorption cross-sectional area
1,"COc1ccc(-c2cc(C3=C(c4cc(-c5ccc(OC)cc5)sc4OC)C(F)(F)C(F)(F)C3(F)F)c(OC)s2)cc1 [(74), reference compound]",15 GM
